The values that follow are results of earlier work, collected in patent publication USRE30496E, “Tripeptide derivatives with central nervous system activity and preparation thereof” (Ayerst, McKenna & Harrison, Ltd., priority 1979, dated 1981).

Data set [1] concerns behavioral effects of (3,4-dihydroxyphenyl)-L-alanine (L-DOPA). As to conditions: literature (Plotnikoff 1971; Friedman 1973).
In a further data set the test system is effects of oxotremorine. Particulars: literature (Plotnikoff 1972).
Another data set relates to mice. Particulars: literature (Plotnikoff 1973).
The next data set deals with monkeys. As to conditions: literature (Plotnikoff 1973).
The conditions of data set [2]: in vivo.

On to “H-L-prolyl-L-leucyl-glycinamide [H--Pro--Leu--Gly--NH2]”, for which the “potentiation of the behavioral effects of L-DOPA” value in data set [1] is given as “potentiates the behavioral effects”. The “antagonism of the effects of oxotremorine” value in the data set on effects of oxotremorine is listed as “antagonizes the effects of oxotremorine”. For the same substance, the “reversal of the sedative effects of deserpidine” value in the data set on mice and with monkeys was “reverses the sedative effects of deserpidine” each time. The “first step in the inactivation” value in data set [2] is reported as “proteolytic cleavage of the Pro-Leu bond”.
